Where a SMILES comes first, the peptide text is derived from it. [ ]: non-standard residue; d: D form.

The record followed here is patent publication US20190119348A1, “PARATHYROID HORMONE RECEPTOR 1 ANTAGONIST AND INVERSE AGONIST POLYPEPTIDES AND METHODS OF THEIR USE” (The General Hospital Corporation, priority 2016, published 2019).

The experiment has as its target T1, endogenous hPTHR1 (Homo sapiens, UniProt Q03431).
T1 construct: Saos-2, in which is endogenously expressed the hPTHR1; endogenous in cells
T1 sequence (Q03431 27-593): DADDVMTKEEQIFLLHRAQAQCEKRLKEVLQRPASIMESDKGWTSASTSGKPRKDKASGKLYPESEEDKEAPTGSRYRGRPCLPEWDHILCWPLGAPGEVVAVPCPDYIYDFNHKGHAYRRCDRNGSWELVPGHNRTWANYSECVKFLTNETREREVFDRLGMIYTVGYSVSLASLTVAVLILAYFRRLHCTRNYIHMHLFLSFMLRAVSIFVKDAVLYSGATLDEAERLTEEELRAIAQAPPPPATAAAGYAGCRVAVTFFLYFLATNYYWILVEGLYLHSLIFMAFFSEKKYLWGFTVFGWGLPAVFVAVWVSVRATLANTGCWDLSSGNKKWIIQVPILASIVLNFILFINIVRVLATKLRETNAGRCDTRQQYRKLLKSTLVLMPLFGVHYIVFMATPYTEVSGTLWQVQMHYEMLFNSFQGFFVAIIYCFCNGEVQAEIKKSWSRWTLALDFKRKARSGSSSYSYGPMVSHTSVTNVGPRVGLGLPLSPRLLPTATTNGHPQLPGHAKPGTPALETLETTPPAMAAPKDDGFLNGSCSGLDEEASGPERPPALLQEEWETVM
Description: Antagonism of PTH(1-34)- and PTHrP(1-36)-induced cAMP response (GloSensor) in SGS-72 cells. Type of experiment: cell-based. Conditions: IC50 PTH(1-34) (Table 6, nanomolar value), antagonist pre-treatment 15 minutes, PTH(1-34) 0.3 nM. Summed up: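 SaOS2-derived SGS-72 cells, which express endogenous hPTHR1 and a stable GloSensor cAMP reporter, were loaded with 0.5 mM luciferin for 15 min at room temperature in CO2-independent medium with 0.1% BSA. Antagonist was tested against PTH(1-34) or PTHrP(1-36), with luminescence taken at the agonist-alone maximum; pIC50 came from four-parameter fits.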

For orientation: IC50 means the concentration that gives 50% inhibition. Turning to `CC[C@H](C)[C@H](NC(=O)[C@H](CCC(=O)O)NC(=O)[C@H](C)NC(=O)[C@@H](NC(=O)[C@H](Cc1c[nH]cn1)NC(=O)[C@@H](NC(=O)[C@H](CCC(=O)O)NC(=O)[C@H](C)NC(=O)[C@@H](NC(=O)[C@H](CC(C)C)NC(=O)[C@H](CCCCN)NC(=O)[C@H](Cc1c[nH]cn1)NC(=O)[C@H](CC(C)C)NC(=O)[C@H](Cc1c[nH]c2ccccc12)NC(=O)[C@H](C)NC(=O)[C@H](CCCNC(=N)N)NC(=O)[C@H](CCCNC(=N)N)NC(=O)[C@H](CCCNC(=N)N)NC(=O)[C@H](C)NC(=O)[C@H](CC(=O)O)NC(=O)[C@H](CCC(N)=O)NC(=O)[C@@H](NC(=O)[C@H](Cc1c[nH]c2ccccc12)NC(=O)[C@H](CCCCN)NC(=O)[C@@H](Cc1c[nH]c2ccccc12)NC(=O)[C@H](CC(C)C)NC(=O)[C@H](CCC(N)=O)NC(=O)[C@H](Cc1c[nH]cn1)NC(=O)[C@H](CCSC)NC(=O)[C@@H](N)CC(C)C)[C@@H](C)CC)[C@@H](C)CC)[C@@H](C)CC)[C@@H](C)O)C(N)=O` [compound 2001, L11, dW12, W23-LA-PTH(7-36)-2001] (H-LMHQL[dW]KWIQDARRRAWLHKLIAEIHTAEI-NH2; N-terminus assumed), the half-inhibitory concentration (IC50) was 2.08 nM. The same measure for `CC[C@H](C)[C@H](N)C(=O)N[C@@H](CCC(N)=O)C(=O)N[C@@H](CC(C)C)C(=O)N[C@@H](CCSC)C(=O)N[C@@H](Cc1c[nH]cn1)C(=O)N[C@@H](CCC(N)=O)C(=O)N[C@@H](CC(C)C)C(=O)N[C@H](Cc1c[nH]c2ccccc12)C(=O)N[C@@H](CCCCN)C(=O)N[C@@H](Cc1c[nH]c2ccccc12)C(=O)N[C@H](C(=O)N[C@@H](CCC(N)=O)C(=O)N[C@@H](CC(=O)O)C(=O)N[C@@H](C)C(=O)N[C@@H](CCCNC(=N)N)C(=O)N[C@@H](CCCNC(=N)N)C(=O)N[C@@H](CCCNC(=N)N)C(=O)N[C@@H](C)C(=O)N[C@@H](Cc1c[nH]c2ccccc12)C(=O)N[C@@H](CC(C)C)C(=O)N[C@@H](Cc1c[nH]cn1)C(=O)N[C@@H](CCCCN)C(=O)N[C@@H](CC(C)C)C(=O)N[C@H](C(=O)N[C@@H](C)C(=O)N[C@@H](CCC(=O)O)C(=O)N[C@H](C(=O)N[C@@H](Cc1c[nH]cn1)C(=O)N[C@H](C(=O)N[C@@H](C)C(=O)N[C@@H](CCC(=O)O)C(=O)N[C@H](C(N)=O)[C@@H](C)CC)[C@@H](C)O)[C@@H](C)CC)[C@@H](C)CC)[C@@H](C)CC` [compound 2003, L11, dW12, W23-LA-PTH(5-36)-2003] (H-IQLMHQL[dW]KWIQDARRRAWLHKLIAEIHTAEI-NH2; N-terminus assumed): 2.57 nM.
